The target of assay [1] is T1, Vasopressin V1a receptor (Homo sapiens, UniProt P37288). In words: Displacement of [3H]manning ligand from human vasopressin V1a receptor expressed in CHO cells. Type of assay: cell-based. Background: Loss of bound radioactivity is the signal in a displacement assay; it reports binding, not function.
Target sequence in this assay (P37288 whole entry): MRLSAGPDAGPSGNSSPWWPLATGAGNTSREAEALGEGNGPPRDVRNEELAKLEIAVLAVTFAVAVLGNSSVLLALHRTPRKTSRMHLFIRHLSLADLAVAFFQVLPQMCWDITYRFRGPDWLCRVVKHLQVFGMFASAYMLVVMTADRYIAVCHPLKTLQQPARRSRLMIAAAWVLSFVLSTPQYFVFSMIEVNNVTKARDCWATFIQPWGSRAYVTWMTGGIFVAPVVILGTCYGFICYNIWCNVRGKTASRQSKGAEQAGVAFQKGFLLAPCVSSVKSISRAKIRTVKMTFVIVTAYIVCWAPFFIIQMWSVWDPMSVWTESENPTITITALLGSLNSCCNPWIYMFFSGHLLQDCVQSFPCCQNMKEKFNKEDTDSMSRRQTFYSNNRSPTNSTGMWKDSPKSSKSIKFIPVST
Assay [2] has as its system Rattus norvegicus. Description: Effect on urine volume in rat 10 mg/kg, po relative to control. The format is functional.
A further assay concerns the target T2, Oxytocin receptor (Homo sapiens, UniProt P30559).
T2 sequence (P30559 whole entry): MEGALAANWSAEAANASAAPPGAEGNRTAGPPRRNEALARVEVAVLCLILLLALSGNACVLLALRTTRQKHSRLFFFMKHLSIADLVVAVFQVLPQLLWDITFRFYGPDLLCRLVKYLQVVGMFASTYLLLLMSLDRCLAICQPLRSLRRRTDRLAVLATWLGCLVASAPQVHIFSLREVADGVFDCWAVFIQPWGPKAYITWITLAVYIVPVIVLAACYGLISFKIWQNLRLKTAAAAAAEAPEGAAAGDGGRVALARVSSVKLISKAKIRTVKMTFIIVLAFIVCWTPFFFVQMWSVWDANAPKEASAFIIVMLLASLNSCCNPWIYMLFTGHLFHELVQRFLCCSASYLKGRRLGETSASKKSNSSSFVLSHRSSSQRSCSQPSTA
In words: Displacement of [3H]oxytocin from human oxytocin receptor expressed in CHO cells. Type of assay: cell-based.

The target in assay [3] is T3, Oxytocin receptor (Homo sapiens) (UniProt P30559).
T3 sequence (whole entry): T2 sequence (P30559 whole entry)
Description: Displacement of [3H]oxytocin from human oxytocin receptor expressed in CHO cells at 1000 nM. The format is cell-based.

Assay [4] deals with T1, Vasopressin V1a receptor. Description: Displacement of [3H]manning ligand from human vasopressin V1a receptor expressed in CHO cells at 1000 nM. The format is cell-based.
Target sequence in this assay (P37288 whole entry, looked up): as the sequence (P37288 whole entry) above
Assay [5] addresses T4, Vasopressin V2 receptor (Homo sapiens, UniProt P30518). Description: Displacement of [3H]AVP from human vasopressin V2 receptor expressed in CHO cells at 1000 nM. Type of assay: cell-based.
In assay [6] the target is T4, Vasopressin V2 receptor. Description: Displacement of [3H]AVP from human vasopressin V2 receptor expressed in mouse LV2 cells. Type of assay: cell-based.
Assay [7] addresses T4, Vasopressin V2 receptor. Description: Displacement of [3H]AVP from human vasopressin V2 receptor expressed in CHO cells. Type of assay: cell-based.
The test system of assay [8] is Rattus norvegicus. Description: Effect on urine volume in rat 10 mg/kg, iv relative to control. Type of assay: functional.
Assay [9] concerns the target T1, Vasopressin V1a receptor. Description: Displacement of [3H]manning ligand from human vasopressin V1a receptor expressed in CHO cells at 100 nM. Type of assay: cell-based.
Target sequence in this assay (P37288 whole entry, looked up): as the sequence (P37288 whole entry) above
In assay [10] the target is T3, Oxytocin receptor (Homo sapiens). In words: Displacement of [3H]oxytocin from human oxytocin receptor expressed in CHO cells at 100 nM. The format is cell-based.
Assay [11] has as its target T4, Vasopressin V2 receptor. Description: Displacement of [3H]AVP from human vasopressin V2 receptor expressed in CHO cells at 100 nM. Type of assay: cell-based.

16 compounds from ChEMBL document CHEMBL1137501, “Identification and synthesis of major metabolites of Vasopressin V2-receptor agonist WAY-151932, and antagonist, Lixivaptan” (Bioorg Med Chem Lett, 2007) can be followed below.

T4 sequence (P30518 whole entry): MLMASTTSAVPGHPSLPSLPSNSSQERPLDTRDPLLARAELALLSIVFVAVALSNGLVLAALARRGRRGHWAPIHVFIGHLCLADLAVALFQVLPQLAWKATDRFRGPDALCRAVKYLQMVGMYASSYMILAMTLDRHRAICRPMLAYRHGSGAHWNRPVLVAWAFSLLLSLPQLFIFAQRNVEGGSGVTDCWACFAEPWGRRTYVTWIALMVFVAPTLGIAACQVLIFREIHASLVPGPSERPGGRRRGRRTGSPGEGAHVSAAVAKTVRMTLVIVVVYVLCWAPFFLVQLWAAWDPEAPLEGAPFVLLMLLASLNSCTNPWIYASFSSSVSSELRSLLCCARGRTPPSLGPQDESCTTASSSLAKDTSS

Broadly, the IC50 is the point on the concentration scale where inhibition reaches its midpoint. High values mean lower potency, low ones higher potency. With `Cc1ccc(F)cc1C(=O)Nc1ccc(C(=O)N2Cc3cccn3Cc3ccccc32)c(Cl)c1` [LIXIVAPTAN], the values for the IC50 at Vasopressin V1a receptor [1] and at Oxytocin receptor were 124 nM and 519 nM, respectively. Further, the Activity in the assay on Rattus norvegicus [2] is on record as 740%.

In general, inhibition refers to the relative decrease from the control value, in per cent. Take `Cc1ccn(-c2ccc(C(=O)N3CC4C=CC(=O)N4Cc4ccccc43)c(Cl)c2)n1` (stereo not drawn): in the assay with Rattus norvegicus [2], the Activity is on record as 16%. For the same compound, the figures for the inhibition (in assay [3]; at Vasopressin V1a receptor [4]; at Vasopressin V2 receptor [5]) were -4%, -8% and 16%, respectively.

`Cc1ccc(F)cc1C(=O)Nc1ccc(C(=O)N2CC3=CCC(=O)N3Cc3ccccc32)c(Cl)c1`: the Activity in the assay on Rattus norvegicus [2] was found to be 131%.

For `Cc1ccn(-c2ccc(C(=O)N3C=C4CCC(=O)N4Cc4ccccc43)c(Cl)c2)n1`, the Activity in the assay on Rattus norvegicus [2] is reported as 0%. Also, at Vasopressin V2 receptor [6], the IC50 turned out to be 1210 nM. Besides, the inhibition on Vasopressin V1a receptor [4] was determined as 4%.

For the compound `Cc1ccn(-c2ccc(C(=O)N3Cc4cccn4Cc4ccccc43)c(Cl)c2)n1`, the Activity with Rattus norvegicus [2] is -82%. The same compound returned an IC50 at Oxytocin receptor of 353 nM.

Regarding `O=C(O)c1ccn(-c2ccc(C(=O)N3Cc4cccn4Cc4ccccc43)c(Cl)c2)n1`, the Activity in the assay on Rattus norvegicus [2] stood at 0%.

In the case of `Cc1ccn(-c2ccc(C(=O)Nc3ccccc3Cn3cccc3C(=O)O)c(Cl)c2)n1`, the inhibition in assay [3] was -10%; at Vasopressin V2 receptor [5], 1%.

Take `O=C(c1ccc(-n2ccc(CO)n2)cc1Cl)N1Cc2cccn2Cc2ccccc21`: the Activity in the assay on Rattus norvegicus [2] was -82%.

Take `Cc1ccc(F)cc1C(=O)Nc1ccc(C(=O)N2C=C3CCC(=O)N3Cc3ccccc32)c(Cl)c1`: the half-maximal inhibitory concentration (IC50) was over 1000 nM at Vasopressin V1a receptor [1], 11 nM on Vasopressin V2 receptor [7] and over 1000 nM at Oxytocin receptor. In the assay with Rattus norvegicus [2], the Activity worked out at 133%.

On to `Cc1ccc(F)cc1C(=O)Nc1ccc(C(=O)Nc2ccccc2Cn2cccc2C(=O)O)c(Cl)c1`, for which the Activity with Rattus norvegicus [8] is reported as 6.9%. The 50% inhibitory concentration (IC50) at Vasopressin V1a receptor [1], on Vasopressin V2 receptor [7] and at Oxytocin receptor was over 1000 nM in each case.

In the case of `Cc1ccc(F)cc1C(=O)Nc1ccc(C(=O)Nc2ccccc2C(=O)O)c(Cl)c1`, the Activity with Rattus norvegicus [8] was -6%. Moreover, the concentration for half-maximal inhibition (IC50) on Vasopressin V1a receptor [1], on Vasopressin V2 receptor [7] and on Oxytocin receptor was over 1000 nM each time.

`Cc1ccc(F)cc1C(=O)Nc1ccc(C(=O)Nc2ccccc2Cn2cccc2C=O)c(Cl)c1`: the inhibition on Vasopressin V1a receptor [9] was -6%; in assay [10], 12%; on Vasopressin V2 receptor [11] it was 3%.

On to `Cc1ccc(F)cc1C(=O)Nc1ccc(C(=O)N2CC3C=CC(=O)N3Cc3ccccc32)c(Cl)c1` (stereo not drawn), for which the IC50 is over 1000 nM on Vasopressin V1a receptor [1], 34 nM at Vasopressin V2 receptor [7] and over 1000 nM at Oxytocin receptor. Besides, the Activity in the assay with Rattus norvegicus [2] is -26%.

On to `Cc1ccc(F)cc1C(=O)Nc1ccc(C(=O)N2C=C3C(O)CC(=O)N3Cc3ccccc32)c(Cl)c1` (stereo not drawn), for which, in the assay on Rattus norvegicus [2], the Activity worked out at 102%.

Turning to `Cc1ccn(-c2ccc(C(=O)N3CC4=CCC(=O)N4Cc4ccccc43)c(Cl)c2)n1`, the Activity with Rattus norvegicus [2] turned out to be 0%. The inhibition was 9% in assay [3], -3% on Vasopressin V1a receptor [4] and 40% on Vasopressin V2 receptor [5].

For the compound `Cc1ccn(-c2ccc(C(=O)Nc3ccccc3C(=O)O)c(Cl)c2)n1`, the results for the inhibition on Vasopressin V1a receptor [4] and at Vasopressin V2 receptor [5] were -7% and 3%, respectively.
